Assay results: patent US20070015813A1, “Treatment of protein folding disorders” (QUEEN'S UNIVERSITY AT KINGSTON, priority 2005, published 2007)

Tests used:
Aβ1-40 = molecular target: T1, Aβ1-40 (Homo sapiens, UniProt P05067); assay: Aβ1-40 disaggregation assay; format: biochemical; conditions: compound added after incubating at 37° C. for 46 hrs., ThT fluorescence
T1 construct: Aβ^1-40 (AnaSpec, San Jose, Calif., lots 14212, 34862 and 34889); purchased AnaSpec, San Jose, Calif
Method: Aβ^1-40 was allowed to aggregate under conditions described in Thioflavin T Aggregation Assay except that no DMSO was added initially. After 46 hrs., compound in DMSO or vehicle was added (2 μL) and the fluorescence measured every 15 min. as detailed above. […] FIG. 3 depicts dose-response curves for inhibition of Aβ^1-40 aggregation by 0j and positive control, morin. FIG. 4 depicts the inhibition of Aβ^1-40 aggregation by 0c in “seeded” ThT assay. FIG. 5 depicts disaggregation of Aβ^1-40 by 0c and positive control, morin. After incubating at 37° C. for 46 hrs. 0c, morin or vehicle were added as DMSO solutions (1:100) and the fluorescence measured every 15 min.

tau441 = molecular target: T2, tau441 (Homo sapiens, UniProt P10636); assay: Kinetic Thioflavin S (ThS) assay of tau441 aggregation; format: biochemical; conditions: for tau aggregation in the absence of heparin inducer: heparin omitted
T2 construct: (expression construct); host or cells: E. coli BL21 D3
T2 sequence (P10636 1-441 isoform P10636-8): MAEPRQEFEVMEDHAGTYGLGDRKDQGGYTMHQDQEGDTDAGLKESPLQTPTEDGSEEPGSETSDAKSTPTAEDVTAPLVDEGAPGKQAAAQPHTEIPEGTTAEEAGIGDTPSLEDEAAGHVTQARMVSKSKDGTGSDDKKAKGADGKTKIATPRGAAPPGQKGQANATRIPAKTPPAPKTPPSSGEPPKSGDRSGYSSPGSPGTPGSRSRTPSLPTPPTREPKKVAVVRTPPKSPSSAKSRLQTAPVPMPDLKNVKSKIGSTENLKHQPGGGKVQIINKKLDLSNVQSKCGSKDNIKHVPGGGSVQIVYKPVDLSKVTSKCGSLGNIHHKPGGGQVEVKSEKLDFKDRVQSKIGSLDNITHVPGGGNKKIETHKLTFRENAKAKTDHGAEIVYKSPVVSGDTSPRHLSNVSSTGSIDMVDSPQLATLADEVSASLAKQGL
Method: The tau441 expression construct [L Buee et al. (2000). Brain Research Reviews 33:95-130] was purchased (Bioclon Inc., San Diego, Calif.) already transformed in BL21 D3 bacterial cells (Novagen/EMD Biosciences) for protein expression. Cells were grown and induced with IPTG according to Novagen's protocol. To lyse cells, Cellytic B reagent (Sigma) was used with lysozyme protease inhibitors (Sigma) and benzonase (Novagen/EMD Biosciences), according to manufacturer's methods. Lysate was cleared by centrifugation for 20 min at 10,000 RPM (SS34 rotor, Sorvall RC2b centrifuge) at 4° C. Protein was purified from the soluble fraction. Once purified, tau441 was stored at −78° C. as frozen aliquots (8.3 mg/mL, 60 μL) in Tris-HCl (50 mM, pH 7.4) until used.
Frozen aliquots of tau441 (8.3 mg/mL, 60 μL) in Tris-HCl (50 mM, pH 7.4) were allowed to thaw at room temperature (RT) before being diluted with Tris-HCl (2.64 mL, 50 mM, pH 7.4) containing dithiothreitol (DTT, 1 mM) to prevent disulfide bonds and NaN3 (50 μM) to prevent bacterial growth. After allowing to stand at RT for 1 h, Thioflavin S (ThS) was added (2.5 μL, 10.8 mM), followed by the aggregation inducer heparin (20 μL, 1.08 g/mL).
Aliquots (200 μL) of Aβ^1-40, Aβ^1-42, tau441 or α-synuclein with ThT or ThS were added to wells of a black polystyrene 96-well plate, followed by 2 μL of a compound in DMSO (various concentrations), or DMSO alone (controls). For α-synuclein, sodium dodecyl sulfate solution (2.0 μL, 30 mM) was also added to each well to induce aggregation. Incubations were performed in triplicate and were taken to contain 20 μM Aβ^1-40 or Aβ^1-42, 6 μM tau441 or 4 μM α-synuclein. Plates were covered with clear polystyrene lids and incubated at 37° C. in a GENios microplate reader obtained from Tecan Group Limited, Mannedorf, Zurich. For Aβ^1-40, tau441 and α-synuclein, fluorescence readings (λex=450 nm, λem=480 nm) were taken every 15 min., after first shaking at high intensity for 15 sec. and allowing to settle for 10 sec. before each reading. For Aβ^1-42, readings were taken every 5 min.
Aggregation conditions: tau441 at a concentration of either 10 μM (A) or 4 μM (B,C,D,E) was incubated in covered black 96-well polystyrene microplates alone or with 100 (A) or 50 μM compound (B,C,D,E), 5 μM ThS, pH 7.4, Tris-HCl (50 mM) containing NaN3 (50 μM), and either 1% MeOH (A) or 1% DMSO (B,C,D,E). Plates were heated at 37° C. in a Tecan GENios microplate reader. All incubations performed in triplicate, except for compound 0c in (A), which had n=1. Fluorescence readings: fluorescence measured every 15 min. (λex=450 nm, λem=480 nm) after shaking for 15 sec. and pausing 10 sec. before taking measurement. Values are the mean of three replicates. Error bars, sometimes not visible due to small size, represent standard deviation of the mean.
Aggregation conditions: tau441 at a concentration of 4 μM was incubated in covered black 96-well polystyrene microplates alone or with 50 μM (A,B,C) or 1 mM compound (D), 5 μM ThS, pH 7.4, Tris-HCl (50 mM) containing NaN3 (50 μM), and 1% DMSO. Plates were heated at 37° C. in a Tecan GENios microplate reader. All incubations performed in triplicate. Fluorescence readings: fluorescence measured every 15 min. (λex=450 nm, λem=480 nm) after shaking for 15 sec. and pausing 10 sec. before taking measurement. Values are the mean of three replicates. Error bars, sometimes not visible due to small size, represent standard deviation of the mean.

T1 sequence (P05067 672-711 limits assumed): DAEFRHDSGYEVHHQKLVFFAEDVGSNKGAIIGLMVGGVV

| SMILES | disaggregation of Aβ1-40 (Aβ1-40) | tau aggregation in the absence of heparin inducer (tau441) | effect on tau fibrillization (ThS fluorescence) (tau441; tau441 4 or 10 μM, 50 to 100 μM compound, 5 μM ThS, heparin inducer, pH 7.4, 37° C.) |
| --- | --- | --- | --- |
| O=C(O)c1ccc2[nH]cc(-c3c[nH]c4ccc(Br)cc34)c2c1 [0c, 3-(5-bromo-indol-3-yl)-indole-5-carboxylic Acid] | disaggregation | inhibited tau aggregation | – |
| O=c1c(O)c(-c2ccc(O)cc2O)oc2cc(O)cc(O)c12 [morin] | disaggregation | inhibited tau aggregation | inhibition of tau fibrillization |
